Measurements from paper PMC3111191, “Molecular Evolution of Multiple Arylalkylamine N-Acetyltransferase (AANAT) in Fish” (Marine Drugs, 2011).

What was measured:
AANAT2 = AANAT2 (Sparus aurata, UniProt Q68SL6); assay: radiochemical assay, inhibition of tryptamine acetylation; format: biochemical; details: read-out: % inhibition at 50 mM
AANAT1a = molecular target: T1, AANAT1a (Sparus aurata, UniProt Q68SL7); assay: as above; format: biochemical; details: read-out: % inhibition at 5 mM
T1 construct: gene AANAT1
T1 sequence (Q68SL7 1-202): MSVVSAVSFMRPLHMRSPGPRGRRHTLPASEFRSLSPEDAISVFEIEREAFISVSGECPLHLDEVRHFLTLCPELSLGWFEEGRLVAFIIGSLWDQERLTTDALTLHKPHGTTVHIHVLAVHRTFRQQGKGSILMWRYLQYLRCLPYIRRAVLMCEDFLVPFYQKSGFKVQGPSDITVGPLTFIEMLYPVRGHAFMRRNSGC

Sequence of AANAT2 (Q68SL6 1-205): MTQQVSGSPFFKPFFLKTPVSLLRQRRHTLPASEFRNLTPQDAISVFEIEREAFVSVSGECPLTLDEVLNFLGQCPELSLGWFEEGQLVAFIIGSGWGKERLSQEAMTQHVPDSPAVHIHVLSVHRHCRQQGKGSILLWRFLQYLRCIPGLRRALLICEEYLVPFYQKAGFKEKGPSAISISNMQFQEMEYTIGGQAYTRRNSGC

inhibition at 50000 µM (AANAT2): ~60% | inhibition at 5000 µM (AANAT1a): ~60%
SMILES: NCCc1ccc(O)c(O)c1 [dopamine]
